How the values were obtained:
Assay type in all cases: biochemical
[1] = metal chelating assay (EDTA chelating activity); conditions: mean ± S.D.; NA: not active
Excerpt: (§1) Six in vitro assays were employed to evaluate the antioxidant activity of the three Salvia EOs. These were radical scavenging activity using 2,2-diphenyl-1-picryl-hydrazyl (DPPH), 2,2′-azino-bis(3-ethylbenzothiazoline-6-sulfonic acid) (ABTS) radical cation-based assay, total antioxidant capacity using cupric-reducing antioxidant capacity assay (CUPRAC), ferric-reducing antioxidant power assay (FRAP), EDTA chelating activity and phosphomolybdenum (PBD) assay.
(§2) In vitro assays were employed to evaluate the antioxidant activity of the three Salvia EOs using the 2,2-diphenyl-1-picryl-hydrazyl (DPPH), 2,2′-azino-bis(3-ethylbenzothiazoline-6-sulfonic acid) (ABTS) radical-cation-based assay, total antioxidant capacity using cupric-reducing antioxidant capacity assay (CUPRAC), ferric-reducing antioxidant power assay (FRAP), EDTA chelating activity and phosphomolybdenum (PBD) assay. These assays were performed according to previously described standard procedures, and values are expressed as Trolox or EDTA equivalent. The experimental procedures are given in supplemental materials. To provide a comparison with standard compounds, IC50 values (the half inhibitory concentration) were also calculated for DPPH, ABTS and metal chelating assays.

[2] = DPPH radical scavenging assay; conditions: mean ± S.D. of three measurements; NA: not active
Excerpt: as §1, §2

[3] = ABTS radical cation-based assay; conditions: mean ± S.D.
Excerpt: as §1, §2

[4] = cupric-reducing antioxidant capacity assay (CUPRAC); conditions: concentration at which absorbance is 0.5; mean ± S.D.
Excerpt: as §1, §2

[5] = ferric-reducing antioxidant power assay (FRAP); conditions: concentration at which absorbance is 0.5; mean ± S.D.
Excerpt: as §1, §2

[6] = phosphomolybdenum (PBD) assay; conditions: concentration at which absorbance is 0.5; mean ± S.D.
Excerpt: as §1, §2

Row | Structure (SMILES) | Chelating IC50 [1] [µg/mL] | DPPH IC50 [2] [µg/mL] | ABTS IC50 [3] [µg/mL] | CUPRAC IC50 [4] [µg/mL] | FRAP IC50 [5] [µg/mL] | PBD IC50 [6] [µg/mL]
1 | O=C(O)CN(CCN(CC(=O)O)CC(=O)O)CC(=O)O [EDTA] | 40 ± 10 | – | – | – | – | –
2 | Cc1c(C)c2c(c(C)c1O)CCC(C)(C(=O)O)O2 (stereo not drawn) [Trolox] | – | 220 ± 10 | 650 ± 90 | 440 ± 20 | 170 ± 10 | 680 ± 10
